Some test systems named below: A549 NSCLC; COLO 205 colon; EKVX NSCLC; HCC-2998 colon; HCT-116 colon; HCT-15 colon; HOP-62 NSCLC; HOP-92 NSCLC; LOX IMVI melanoma; MCF7 breast; MDA-MB-231 breast; NCI-H226 lung; NCI-H23 lung; OVCAR-5 ovarian; OVCAR-8 ovarian; RXF 393 renal; SF-295 CNS; SF-539 CNS; U251 CNS.
Common to all, as to test: NCI tumour cell line growth inhibition, 48 h

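Grown in 96-well plates, cells were treated for 48 hours with each compound at five concentrations. Insufficient inhibition: endpoint recorded as highest concentration tested. Definition used: TGI = concentration required for complete inhibition of growth.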

Regarding `COC(=O)c1c(O)ccc2c1c1c(n2Cc2ccccc2OC)C(=O)c2ccccc2C1=O`, the TGI is 20.2 µM in the assay with A549 NSCLC; 3.31 µM with COLO 205 colon; 45 µM in the assay with EKVX NSCLC; 15.7 µM in the assay on HCC-2998 colon; 16.6 µM with HCT-116 colon; 20 µM in the assay with HCT-15 colon. For the same compound, the TGI was determined as 27.8 µM in the assay with HOP-62 NSCLC; 22.4 µM in the assay with HOP-92 NSCLC; 26.3 µM in the assay with LOX IMVI melanoma; 43.7 µM in the assay on MCF7 breast; 54.9 µM in the assay on MDA-MB-231 breast; 39.3 µM in the assay on NCI-H226 lung. Besides, the TGI came out at 34.8 µM with NCI-H23 lung; 40.1 µM in the assay with OVCAR-5 ovarian; 27.4 µM in the assay on OVCAR-8 ovarian; 30.7 µM in the assay on RXF 393 renal; 63.6 µM with SF-295 CNS; 47.1 µM with SF-539 CNS. Besides, the TGI with U251 CNS was found to be 24.4 µM.

Turning to `CN(/N=C/c1ccccn1)C1=NCCCN1`, the TGI in the assay with A549 NSCLC, in the assay with COLO 205 colon, in the assay on EKVX NSCLC, in the assay on HCC-2998 colon, in the assay with HCT-116 colon and with HCT-15 colon was more than 100 µM throughout. In addition, the TGI with HOP-62 NSCLC, in the assay on HOP-92 NSCLC, in the assay with LOX IMVI melanoma, in the assay with MCF7 breast, in the assay with MDA-MB-231 breast and in the assay on NCI-H226 lung was more than 100 µM each time. The TGI in the assay on NCI-H23 lung, in the assay with OVCAR-5 ovarian, with OVCAR-8 ovarian, in the assay with RXF 393 renal, in the assay with SF-295 CNS and in the assay with SF-539 CNS was more than 100 µM throughout. In the assay on U251 CNS, the TGI is more than 100 µM.

Source of the values: PubChem BioAssay (NCI).
